Legend:
Assay in all cases: relative viability (nuclei count vs DMSO), 5 days (fraction); higher = more cells survive
[1] = compound: CC1CC(=O)N(C2=CN=C(N=C2N1C3CCCC3)NC4=C(C=C(C=C4)C(=O)NC5CCN(CC5)C)OC)C [NPK76-II-72-1] + Nc1nc2[nH]cc(CCc3ccc(C(=O)N[C@@H](CCC(=O)O)C(=O)O)cc3)c2c(=O)[nH]1 [Pemetrexed] (partner 0.2 µM)
In short: (§1)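 Nuclei were stained with Hoechst during a one-step fixation (final 0.05% Triton X-100, 1% formaldehyde, 1 ug/ml Hoechst) carried out 5 days after dosing, then counted on 4× images. The cells, lung cancer lines in 1536-well plates, had been dosed by pin tool the day after seeding with one drug alone or a fixed anchor-drug dose plus five library-drug doses (not always all listed) in √10 steps. Relative viability is the nuclei count in treated wells divided by that in vehicle wells, and each value is the median of duplicate plates.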

BI-2536 + Trametinib = compound: CC[C@@H]1C(=O)N(C)c2cnc(Nc3ccc(C(=O)NC4CCN(C)CC4)cc3OC)nc2N1C1CCCC1 [BI-2536] + CC(=O)Nc1cccc(-n2c(=O)n(C3CC3)c(=O)c3c(Nc4ccc(I)cc4F)n(C)c(=O)c(C)c32)c1 [Trametinib] (partner 0.02 µM)
In short: as §1

BI-2536 + Pemetrexed = compound: CC[C@@H]1C(=O)N(C)c2cnc(Nc3ccc(C(=O)NC4CCN(C)CC4)cc3OC)nc2N1C1CCCC1 [BI-2536] + Nc1nc2[nH]cc(CCc3ccc(C(=O)N[C@@H](CCC(=O)O)C(=O)O)cc3)c2c(=O)[nH]1 [Pemetrexed] (partner 0.2 µM)
In short: as §1

BI-2536 + Foretinib = compound: CC[C@@H]1C(=O)N(C)c2cnc(Nc3ccc(C(=O)NC4CCN(C)CC4)cc3OC)nc2N1C1CCCC1 [BI-2536] + COc1cc2c(Oc3ccc(NC(=O)C4(C(=O)Nc5ccc(F)cc5)CC4)cc3F)ccnc2cc1OCCCN1CCOCC1 [Foretinib] (partner 0.25 µM)
In short: as §1

Row | Cell Line | relative viability ([1]; first compound 0.01 µM) | relative viability ([1]; first compound 0.03162 µM) | relative viability ([1]; first compound 0.1 µM) | relative viability ([1]; first compound 1 µM) | relative viability (BI-2536 + Trametinib; first compound 0.01 µM) | relative viability (BI-2536 + Trametinib; first compound 0.03162 µM) | relative viability (BI-2536 + Trametinib; first compound 0.1 µM) | relative viability (BI-2536 + Trametinib; first compound 0.3162 µM) | relative viability (BI-2536 + Trametinib; first compound 1 µM) | relative viability (BI-2536 + Pemetrexed; first compound 0.01 µM) | relative viability (BI-2536 + Pemetrexed; first compound 0.03162 µM) | relative viability (BI-2536 + Pemetrexed; first compound 0.1 µM) | relative viability (BI-2536 + Pemetrexed; first compound 0.3162 µM) | relative viability (BI-2536 + Pemetrexed; first compound 1 µM) | relative viability ([1]; first compound 0.3162 µM) | relative viability (BI-2536 + Foretinib; first compound 0.01 µM) | relative viability (BI-2536 + Foretinib; first compound 0.03162 µM) | relative viability (BI-2536 + Foretinib; first compound 0.1 µM) | relative viability (BI-2536 + Foretinib; first compound 0.3162 µM) | relative viability (BI-2536 + Foretinib; first compound 1 µM)
1 | NCI-H522 | 0.839 | 0.914 | 1.01 | 0.797 | 0.745 | 0.757 | 0.766 | 0.302 | 0.289 | 1.1 | 0.977 | 1.03 | 0.342 | 0.288 |  |  |  |  |  | 
2 | HCC-15 | 0.214 | 0.23 | 0.219 | 0.235 | 0.389 | 0.319 | 0.364 | 0.128 | 0.125 | 0.228 | 0.211 | 0.197 | 0.179 | 0.179 | 0.225 | 0.854 | 0.648 | 0.361 | 0.137 | 0.143
3 | A-427 | 0.903 | 0.991 | 0.978 | 1.01 | 0.733 | 0.662 | 0.605 | 0.184 | 0.189 | 1.01 | 1.07 | 0.504 | 0.198 | 0.196 | 0.965 | 1.02 | 0.919 | 1.08 | 0.166 | 0.148
4 | NCI-H2228 | 0.307 | 0.359 | 0.33 | 0.343 | 0.312 | 0.51 | 0.184 | 0.107 | 0.089 | 0.382 | 0.385 | 0.131 | 0.194 | 0.14 | 0.339 | 1.05 | 0.583 | 0.217 | 0.15 | 0.156
5 | NCI-H1734 | 0.428 | 0.402 | 0.413 | 0.416 | 0.723 | 0.638 | 0.593 | 0.173 | 0.165 | 0.39 | 0.36 | 0.279 | 0.211 | 0.188 | 0.418 | 0.886 | 0.889 | 0.464 | 0.199 | 0.176
6 | PC-14 | 0.124 | 0.126 | 0.125 | 0.162 | 0.847 | 0.71 | 0.0723 | 0.0556 | 0.0339 | 0.15 | 0.14 | 0.132 | 0.0335 | 0.0205 | 0.123 | 0.961 | 0.93 | 0.895 | 0.0827 | 0.0753
7 | NCI-H1915 | 0.459 | 0.527 | 0.452 | 0.533 | 0.29 | 0.332 | 0.317 | 0.0844 | 0.0806 | 0.507 | 0.427 | 0.347 | 0.147 | 0.0852 | 0.475 | 1.13 | 0.975 | 0.618 | 0.16 | 0.143
8 | NCI-H1666 | 0.844 | 0.802 | 0.88 | 0.917 | 0.919 | 0.914 | 0.865 | 0.49 | 0.512 | 0.822 | 0.881 | 0.831 | 0.543 | 0.57 | 0.78 | 1.02 | 0.981 | 0.826 | 0.447 | 0.421
9 | HCC-366 | 0.127 | 0.149 | 0.132 | 0.143 | 0.364 | 0.371 | 0.235 | 0.0287 | 0.0227 | 0.193 | 0.17 | 0.157 | 0.024 | 0.0288 | 0.138 | 0.959 | 0.847 | 0.225 | 0.0291 | 0.0206
10 | SK-MES-1 | 0.929 | 0.968 | 0.989 | 1.12 | 0.523 | 0.555 | 0.407 | 0.196 | 0.161 | 0.912 | 0.887 | 0.66 | 0.205 | 0.197 | 1.01 | 0.926 | 0.778 | 0.927 | 0.204 | 0.168
11 | SW 1573 | 0.751 | 0.829 | 0.821 | 0.824 | 0.515 | 0.51 | 0.117 | 0.103 | 0.0762 | 0.753 | 0.516 | 0.149 | 0.124 | 0.0813 | 0.849 | 0.878 | 0.91 | 0.936 | 0.196 | 0.158
12 | NCI-H661 | 0.953 | 0.907 | 0.893 | 0.954 | 0.587 | 0.427 | 0.291 | 0.238 | 0.264 | 0.936 | 0.61 | 0.449 | 0.293 | 0.289 | 0.902 | 1.13 | 0.889 | 0.388 | 0.296 | 0.309
13 | PC-3 [JPC-3] | 0.963 |  | 1.06 | 1.1 | 0.71 | 0.583 | 0.616 | 0.357 | 0.438 | 1.23 | 1.04 | 0.319 | 0.299 | 0.24 | 1.18 | 1.06 | 0.914 | 0.753 | 0.17 | 0.187
14 | NCI-H1623 |  |  |  |  |  |  |  |  |  |  |  |  |  |  |  | 0.912 | 0.864 | 0.83 | 0.345 | 0.321

— the supplement of paper PMC10307832
